Drawing on ChEMBL document CHEMBL1144455, “A small molecule-kinase interaction map for clinical kinase inhibitors” (Nat Biotechnol, 2005), this text covers Kd for three molecules.

The Kd is the equilibrium constant for the complex coming apart. The low end stands for tighter binding, the high end for weaker binding.

Experiment [1] has as its target Tyrosine-protein kinase Fer (Homo sapiens, UniProt P16591).
The target in experiment [2] is Dual specificity protein kinase CLK3 (Homo sapiens, UniProt P49761).
Chain of Dual specificity protein kinase CLK3 (P49761 whole entry): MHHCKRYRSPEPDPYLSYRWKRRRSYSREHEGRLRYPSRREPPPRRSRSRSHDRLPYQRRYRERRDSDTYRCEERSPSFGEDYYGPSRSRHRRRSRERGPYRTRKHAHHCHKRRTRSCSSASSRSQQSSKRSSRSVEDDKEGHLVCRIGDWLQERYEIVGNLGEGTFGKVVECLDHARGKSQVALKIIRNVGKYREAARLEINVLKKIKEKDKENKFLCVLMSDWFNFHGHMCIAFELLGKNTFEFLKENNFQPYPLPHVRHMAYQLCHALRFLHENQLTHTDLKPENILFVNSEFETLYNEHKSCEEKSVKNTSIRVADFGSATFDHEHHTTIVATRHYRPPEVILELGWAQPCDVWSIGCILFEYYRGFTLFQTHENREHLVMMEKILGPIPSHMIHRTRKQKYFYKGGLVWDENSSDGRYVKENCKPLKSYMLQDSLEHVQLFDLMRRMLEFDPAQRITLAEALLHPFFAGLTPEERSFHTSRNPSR
Experiment [3] has as its target Tyrosine-protein kinase BTK (Homo sapiens, UniProt Q06187).
The target of experiment [4] is Serine/threonine-protein kinase PAK 1 (Homo sapiens, UniProt Q13153).
Chain of Serine/threonine-protein kinase PAK 1 (Q13153 whole entry): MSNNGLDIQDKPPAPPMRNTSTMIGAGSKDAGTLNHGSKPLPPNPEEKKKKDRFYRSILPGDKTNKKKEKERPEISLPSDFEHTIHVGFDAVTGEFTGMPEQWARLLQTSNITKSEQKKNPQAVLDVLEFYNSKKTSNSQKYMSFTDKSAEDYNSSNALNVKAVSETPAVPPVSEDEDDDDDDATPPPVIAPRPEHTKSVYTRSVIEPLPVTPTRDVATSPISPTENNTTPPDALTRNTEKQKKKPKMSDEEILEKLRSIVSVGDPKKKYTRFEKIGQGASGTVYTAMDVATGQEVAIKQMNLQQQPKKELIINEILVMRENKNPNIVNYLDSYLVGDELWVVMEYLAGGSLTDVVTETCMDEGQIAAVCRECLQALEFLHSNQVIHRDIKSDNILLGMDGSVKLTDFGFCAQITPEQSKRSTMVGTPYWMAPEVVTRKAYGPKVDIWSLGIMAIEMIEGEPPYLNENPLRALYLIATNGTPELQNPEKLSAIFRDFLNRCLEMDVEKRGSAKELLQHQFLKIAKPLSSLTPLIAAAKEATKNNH
The target in experiment [5] is Receptor tyrosine-protein kinase erbB-2 (Homo sapiens, UniProt P04626).
Chain of Receptor tyrosine-protein kinase erbB-2 (P04626 whole entry): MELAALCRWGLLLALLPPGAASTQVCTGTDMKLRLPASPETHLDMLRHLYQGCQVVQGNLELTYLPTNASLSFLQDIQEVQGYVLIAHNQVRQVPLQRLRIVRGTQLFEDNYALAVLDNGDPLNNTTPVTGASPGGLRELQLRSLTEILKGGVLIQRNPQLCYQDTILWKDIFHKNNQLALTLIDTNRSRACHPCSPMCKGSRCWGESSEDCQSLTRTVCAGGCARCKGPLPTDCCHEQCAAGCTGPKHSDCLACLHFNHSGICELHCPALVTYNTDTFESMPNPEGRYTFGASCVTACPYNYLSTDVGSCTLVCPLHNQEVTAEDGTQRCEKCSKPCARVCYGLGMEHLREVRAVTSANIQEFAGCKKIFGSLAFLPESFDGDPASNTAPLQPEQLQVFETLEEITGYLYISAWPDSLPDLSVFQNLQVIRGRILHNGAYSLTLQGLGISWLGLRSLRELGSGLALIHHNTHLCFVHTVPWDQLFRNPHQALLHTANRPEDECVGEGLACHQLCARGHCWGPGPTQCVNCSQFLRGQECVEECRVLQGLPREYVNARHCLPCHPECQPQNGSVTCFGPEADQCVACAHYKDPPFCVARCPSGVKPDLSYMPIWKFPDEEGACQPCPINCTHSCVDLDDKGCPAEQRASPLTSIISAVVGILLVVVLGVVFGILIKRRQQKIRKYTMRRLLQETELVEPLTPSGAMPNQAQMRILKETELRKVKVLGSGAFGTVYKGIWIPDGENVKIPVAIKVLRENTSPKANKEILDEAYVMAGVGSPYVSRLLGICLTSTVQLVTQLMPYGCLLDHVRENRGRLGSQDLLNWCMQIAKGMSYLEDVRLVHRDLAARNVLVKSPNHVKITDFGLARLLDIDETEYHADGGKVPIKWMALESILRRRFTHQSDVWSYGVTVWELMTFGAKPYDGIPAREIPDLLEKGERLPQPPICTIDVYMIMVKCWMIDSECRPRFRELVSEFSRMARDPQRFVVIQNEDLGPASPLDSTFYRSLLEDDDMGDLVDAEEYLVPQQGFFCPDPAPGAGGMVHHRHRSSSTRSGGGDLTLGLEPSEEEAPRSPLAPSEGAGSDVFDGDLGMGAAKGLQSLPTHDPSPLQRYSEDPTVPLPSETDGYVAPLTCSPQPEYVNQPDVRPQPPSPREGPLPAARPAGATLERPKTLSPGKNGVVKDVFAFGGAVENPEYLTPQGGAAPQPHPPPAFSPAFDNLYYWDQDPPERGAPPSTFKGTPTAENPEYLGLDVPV
For experiment [6], the target named is Ephrin type-A receptor 5 (Homo sapiens, UniProt P54756).
Experiment [7] deals with Protein-tyrosine kinase 6 (Homo sapiens, UniProt Q13882).
Chain of Protein-tyrosine kinase 6 (Q13882 whole entry): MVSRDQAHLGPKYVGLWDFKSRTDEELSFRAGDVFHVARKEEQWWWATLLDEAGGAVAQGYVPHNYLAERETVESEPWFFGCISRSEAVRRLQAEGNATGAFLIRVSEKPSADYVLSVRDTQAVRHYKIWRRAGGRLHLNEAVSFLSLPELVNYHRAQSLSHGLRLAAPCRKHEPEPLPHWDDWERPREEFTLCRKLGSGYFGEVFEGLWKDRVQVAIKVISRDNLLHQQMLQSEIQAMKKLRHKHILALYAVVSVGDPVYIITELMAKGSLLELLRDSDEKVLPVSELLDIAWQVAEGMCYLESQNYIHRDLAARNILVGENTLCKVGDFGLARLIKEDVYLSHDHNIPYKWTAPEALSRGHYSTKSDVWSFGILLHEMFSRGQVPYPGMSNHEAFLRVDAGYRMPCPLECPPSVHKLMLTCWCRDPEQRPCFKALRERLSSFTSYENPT
Experiment [8] has as its target T1, Serine/threonine-protein kinase 36 (Homo sapiens, UniProt Q9NRP7).
T1 sequence (Q9NRP7 whole entry): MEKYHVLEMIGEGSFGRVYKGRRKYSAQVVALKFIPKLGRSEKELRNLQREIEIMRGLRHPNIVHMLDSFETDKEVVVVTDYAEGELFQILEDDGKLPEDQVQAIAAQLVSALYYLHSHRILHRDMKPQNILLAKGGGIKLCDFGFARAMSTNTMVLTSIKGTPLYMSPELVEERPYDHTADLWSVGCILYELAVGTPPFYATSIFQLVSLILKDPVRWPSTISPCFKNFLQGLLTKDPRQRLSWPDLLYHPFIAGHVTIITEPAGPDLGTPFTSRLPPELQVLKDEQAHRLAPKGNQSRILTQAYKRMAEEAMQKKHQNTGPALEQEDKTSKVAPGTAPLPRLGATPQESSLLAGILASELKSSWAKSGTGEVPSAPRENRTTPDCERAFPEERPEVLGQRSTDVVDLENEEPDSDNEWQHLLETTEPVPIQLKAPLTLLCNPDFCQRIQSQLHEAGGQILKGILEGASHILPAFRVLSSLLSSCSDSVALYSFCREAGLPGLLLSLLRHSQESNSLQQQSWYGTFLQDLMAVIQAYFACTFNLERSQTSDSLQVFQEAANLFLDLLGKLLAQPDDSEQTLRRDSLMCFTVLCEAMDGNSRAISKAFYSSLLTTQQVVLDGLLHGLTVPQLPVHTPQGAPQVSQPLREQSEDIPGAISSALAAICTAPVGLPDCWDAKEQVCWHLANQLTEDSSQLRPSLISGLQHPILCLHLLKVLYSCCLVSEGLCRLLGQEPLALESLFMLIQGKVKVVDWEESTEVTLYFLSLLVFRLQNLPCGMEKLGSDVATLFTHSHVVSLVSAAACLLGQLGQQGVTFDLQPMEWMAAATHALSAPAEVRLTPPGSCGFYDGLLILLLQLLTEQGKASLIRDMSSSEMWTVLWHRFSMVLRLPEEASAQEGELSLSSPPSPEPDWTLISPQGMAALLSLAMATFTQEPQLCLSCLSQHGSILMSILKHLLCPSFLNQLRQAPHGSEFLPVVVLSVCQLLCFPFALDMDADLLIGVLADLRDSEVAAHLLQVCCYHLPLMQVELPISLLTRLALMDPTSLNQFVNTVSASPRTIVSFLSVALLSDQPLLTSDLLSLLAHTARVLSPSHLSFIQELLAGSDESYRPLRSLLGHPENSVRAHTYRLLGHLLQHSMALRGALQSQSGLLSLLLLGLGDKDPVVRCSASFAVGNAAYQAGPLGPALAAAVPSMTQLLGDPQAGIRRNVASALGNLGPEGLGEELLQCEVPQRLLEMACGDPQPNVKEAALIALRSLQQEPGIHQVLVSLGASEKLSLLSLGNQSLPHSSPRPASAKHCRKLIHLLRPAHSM

Experiment [9] addresses Dual specificity protein kinase CLK4 (Homo sapiens, UniProt Q9HAZ1).
Experiment [10] concerns the target MAP kinase-interacting serine/threonine-protein kinase 2 (Homo sapiens, UniProt Q9HBH9).
Experiment [11] addresses BMP-2-inducible protein kinase (Homo sapiens, UniProt Q9NSY1).
The target in experiment [12] is Ribosomal protein S6 kinase alpha-5 (Homo sapiens, UniProt O75582).
Chain of Ribosomal protein S6 kinase alpha-5 (O75582 whole entry): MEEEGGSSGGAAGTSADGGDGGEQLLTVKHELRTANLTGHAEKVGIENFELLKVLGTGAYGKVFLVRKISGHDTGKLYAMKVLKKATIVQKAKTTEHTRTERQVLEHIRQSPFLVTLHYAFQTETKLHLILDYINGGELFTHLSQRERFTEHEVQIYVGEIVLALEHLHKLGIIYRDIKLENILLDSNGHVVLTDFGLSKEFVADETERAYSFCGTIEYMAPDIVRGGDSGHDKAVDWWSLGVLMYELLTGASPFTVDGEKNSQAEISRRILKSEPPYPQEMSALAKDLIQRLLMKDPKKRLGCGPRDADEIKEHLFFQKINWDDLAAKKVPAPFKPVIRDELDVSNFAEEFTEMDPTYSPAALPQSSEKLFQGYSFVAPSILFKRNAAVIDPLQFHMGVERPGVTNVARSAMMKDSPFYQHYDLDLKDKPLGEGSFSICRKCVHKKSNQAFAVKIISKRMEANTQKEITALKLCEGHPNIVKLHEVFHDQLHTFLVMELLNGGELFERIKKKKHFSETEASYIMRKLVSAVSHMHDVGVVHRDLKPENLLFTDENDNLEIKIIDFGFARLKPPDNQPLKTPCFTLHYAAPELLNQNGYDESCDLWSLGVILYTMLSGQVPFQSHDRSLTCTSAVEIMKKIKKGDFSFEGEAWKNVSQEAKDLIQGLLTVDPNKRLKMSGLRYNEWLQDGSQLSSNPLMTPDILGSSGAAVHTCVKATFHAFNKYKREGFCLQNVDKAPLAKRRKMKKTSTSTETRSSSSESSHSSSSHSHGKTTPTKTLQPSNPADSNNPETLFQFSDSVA
Experiment [13] concerns the target T2, Ephrin type-A receptor 3 (Homo sapiens, UniProt P29320).
T2 sequence (P29320 whole entry): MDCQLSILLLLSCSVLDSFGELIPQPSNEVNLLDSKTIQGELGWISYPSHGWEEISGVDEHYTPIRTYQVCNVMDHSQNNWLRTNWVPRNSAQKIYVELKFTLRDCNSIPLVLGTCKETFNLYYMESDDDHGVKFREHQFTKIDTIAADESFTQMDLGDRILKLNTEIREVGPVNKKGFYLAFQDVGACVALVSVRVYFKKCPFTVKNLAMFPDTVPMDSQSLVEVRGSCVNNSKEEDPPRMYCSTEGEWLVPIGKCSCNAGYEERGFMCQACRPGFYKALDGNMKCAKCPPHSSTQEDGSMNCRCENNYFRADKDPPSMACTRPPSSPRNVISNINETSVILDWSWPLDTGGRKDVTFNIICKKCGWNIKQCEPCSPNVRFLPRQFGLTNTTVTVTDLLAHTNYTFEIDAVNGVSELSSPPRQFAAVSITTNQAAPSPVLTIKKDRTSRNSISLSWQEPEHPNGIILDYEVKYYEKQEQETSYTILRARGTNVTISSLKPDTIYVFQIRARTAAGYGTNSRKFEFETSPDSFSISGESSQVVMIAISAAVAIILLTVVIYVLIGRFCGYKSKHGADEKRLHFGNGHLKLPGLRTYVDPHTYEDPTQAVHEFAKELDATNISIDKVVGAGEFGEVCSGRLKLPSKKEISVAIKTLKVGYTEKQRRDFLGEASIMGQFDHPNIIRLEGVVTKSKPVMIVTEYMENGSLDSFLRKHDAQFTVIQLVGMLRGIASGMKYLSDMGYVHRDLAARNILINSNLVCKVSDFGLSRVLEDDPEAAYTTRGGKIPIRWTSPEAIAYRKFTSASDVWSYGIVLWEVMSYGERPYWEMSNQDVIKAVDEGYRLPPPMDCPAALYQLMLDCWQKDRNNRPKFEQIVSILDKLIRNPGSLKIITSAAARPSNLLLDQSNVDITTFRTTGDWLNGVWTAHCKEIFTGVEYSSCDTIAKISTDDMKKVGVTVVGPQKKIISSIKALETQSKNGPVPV

Experiment [14] deals with Casein kinase I isoform gamma-1 (Homo sapiens, UniProt Q9HCP0).
Chain of Casein kinase I isoform gamma-1 (Q9HCP0 whole entry, canonical isoform): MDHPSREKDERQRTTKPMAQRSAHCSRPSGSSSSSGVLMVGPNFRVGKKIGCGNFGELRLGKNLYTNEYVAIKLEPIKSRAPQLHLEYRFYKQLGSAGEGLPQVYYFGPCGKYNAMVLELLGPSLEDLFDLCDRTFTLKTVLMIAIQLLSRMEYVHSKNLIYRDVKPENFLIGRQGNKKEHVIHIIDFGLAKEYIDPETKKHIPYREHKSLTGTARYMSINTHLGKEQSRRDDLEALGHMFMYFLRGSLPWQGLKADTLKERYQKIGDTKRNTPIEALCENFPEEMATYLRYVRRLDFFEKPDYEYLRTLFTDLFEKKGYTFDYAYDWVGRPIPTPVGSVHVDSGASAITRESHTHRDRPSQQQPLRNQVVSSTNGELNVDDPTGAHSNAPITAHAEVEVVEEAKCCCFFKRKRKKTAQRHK

SMILES strings stand for the structures.

Chain of Tyrosine-protein kinase BTK (Q06187 whole entry): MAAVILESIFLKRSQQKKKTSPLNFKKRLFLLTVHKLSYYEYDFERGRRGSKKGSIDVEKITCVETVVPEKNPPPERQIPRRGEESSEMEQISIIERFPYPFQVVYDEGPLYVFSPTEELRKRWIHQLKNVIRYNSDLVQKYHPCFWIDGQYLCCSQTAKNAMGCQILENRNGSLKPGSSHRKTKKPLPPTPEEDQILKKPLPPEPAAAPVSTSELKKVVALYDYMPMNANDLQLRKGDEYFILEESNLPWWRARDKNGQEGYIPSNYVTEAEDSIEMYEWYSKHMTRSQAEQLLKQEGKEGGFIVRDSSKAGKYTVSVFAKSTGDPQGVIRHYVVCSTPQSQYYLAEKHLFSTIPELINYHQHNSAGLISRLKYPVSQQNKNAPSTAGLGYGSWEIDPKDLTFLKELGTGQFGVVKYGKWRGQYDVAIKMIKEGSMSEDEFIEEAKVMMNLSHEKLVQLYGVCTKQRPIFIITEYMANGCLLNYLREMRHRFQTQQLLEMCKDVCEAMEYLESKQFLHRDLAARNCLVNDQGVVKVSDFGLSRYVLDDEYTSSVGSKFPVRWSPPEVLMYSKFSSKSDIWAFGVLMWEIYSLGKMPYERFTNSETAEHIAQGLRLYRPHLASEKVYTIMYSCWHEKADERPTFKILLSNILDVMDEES

Take `CCOc1cc2ncc(C#N)c(Nc3ccc(F)c(Cl)c3)c2cc1NC(=O)/C=C/CN(C)C` [PELITINIB]: the Kd is 250 nM in experiment [1]; 2100 nM in [2]; 1500 nM in experiment [3]; 2100 nM in experiment [4]; 77 nM in [5]; 710 nM in experiment [6].

On to `Oc1ccc(-c2nc(-c3ccc(F)cc3)c(-c3ccncc3)[nH]2)cc1` [SB-202190], for which the Kd in experiment [7] amounted to 3000 nM; in experiment [8], 3800 nM.

Turning to `Oc1c2ccccc2c2c3c(cccc13)N=N2` [SP-600125], the Kd stood at 260 nM in experiment [9]; 1000 nM in experiment [10]; 25 nM in [11]; 1700 nM in [12]; 4000 nM in [13]; 3700 nM in [14].
